molecular target: KRasG12C (M1-K169, biotinylated on the N-terminus) (Homo sapiens (Human), UniProt P01116, G12C); test: Covalent competition assay: scintillation proximity assay (SPA) quantifying covalent modification of KRASG12C; type: binding; details: competition with radiolabeled covalent probe (Compound B/Compound A), 2 hours incubation, 10 nM KRasG12C
Method in brief: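 Scintillation proximity readout after streptavidin bead capture (30 min) of biotinylated KRasG12C(M1-K169):GDP, 10 nM final, which was covalently labelled over 2 h by 25 nM radio-probe plus 475 nM cold probe unless blocked by compound.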

Structure (SMILES)	IC50
C=CC(=O)N1CC2(CC(n3nc(N4CCN(C5COC5)C[C@]4(C)CC)c(-c4c(Cl)c(C)cc5[nH]nc(N)c45)c3C)C2)C1 (single isomer, unassigned) [Example 158b]	172 nM
C=CC(=O)N1CC2(CC(n3nc(N4CC[C@@H](CN5CC6CCC(C5)O6)CC4(C)C)c(-c4c(Cl)c(Cl)cc5[nH]ncc45)c3C)C2)C1 (single isomer, unassigned) [Example 314b]	52 nM
C=CC(=O)N1CC2(CC(n3nc(N4CCC(CN5CC6CC(C5)O6)CC4(C)C)c(-c4c(Cl)c(Cl)cc5[nH]ncc45)c3C)C2)C1 (single isomer, unassigned) [Example 229b, 1-(6-(3-(4-((6-oxa-3-azabicyclo[3.1.1]heptan-3-yl)methyl)-2,2-dimethylpiperidin-1-yl)-4-(5,6-dichloro-1H-indazol-4-yl)-5-methyl-1H-pyrazol-1-yl)-2-azaspiro[3.3]heptan-2-yl)prop-2-en-1-one]	11 nM
C=CC(=O)N1CC2(CC(n3nc(N4CCN(CCOC)C[C@@]4(C)C(F)F)c(-c4c(Cl)c(C)cc5[nH]ncc45)c3C)C2)C1 (single isomer, unassigned) [Example 179a]	> 5000 nM
C=CC(=O)N1CC2(CC(n3nc(N4CCc5nn(C)c(=O)cc5C4)c(-c4c(Cl)c(C)cc5[nH]ncc45)c3C)C2)C1 (single isomer, unassigned) [Example 40b, 6-(1-(2-acryloyl-2-azaspiro[3.3]heptan-6-yl)-4-(5-chloro-6-methyl-1H-indazol-4-yl)-5-methyl-1H-pyrazol-3-yl)-2-methyl-5,6,7,8-tetrahydropyrido[4,3-c]pyridazin-3(2H)-one]	633 nM

Further lines, results first:

IC50	Structure (SMILES)
86 nM	C=CC(=O)N1CC2(CC(n3nc(N4CCN(Cc5ccccc5)CC45CCC5)c(-c4c(Cl)c(C)cc5[nH]ncc45)c3C)C2)C1 (single isomer, unassigned) [Example 100b, 1-(6-(3-(8-benzyl-5,8-diazaspiro[3.5]nonan-5-yl)-4-(5-chloro-6-methyl-1H-indazol-4-yl)-5-methyl-1H-pyrazol-1-yl)-2-azaspiro[3.3]heptan-2-yl)prop-2-en-1-one]
> 5000 nM	C=CC(=O)N1CC2(CC(n3nc(N4CCN(C5COC5)CC45CCCC5)c(-c4c(Cl)c(C)cc5[nH]ncc45)c3C)C2)C1 (single isomer, unassigned) [Example 144a, 1-(6-(4-(5-chloro-6-methyl-1H-indazol-4-yl)-5-methyl-3-(9-(oxetan-3-yl)-6,9-diazaspiro[4.5]decan-6-yl)-1H-pyrazol-1-yl)-2-azaspiro[3.3]heptan-2-yl)prop-2-en-1-one]
6100 nM	C=CC(=O)N1CC2(CC(n3nc(N4CCN(C(C)=O)CC4(C)C)c(-c4c(Cl)c(C)cc5[nH]ncc45)c3C)C2)C1 (single isomer, unassigned) [Example 18a, 1-(6-(3-(4-acetyl-2,2-dimethylpiperazin-1-yl)-4-(5-chloro-6-methyl-1H-indazol-4-yl)-5-methyl-1H-pyrazol-1-yl)-2-azaspiro[3.3]heptan-2-yl)prop-2-en-1-one]
1300 nM	C=CC(=O)N1CC2(CC(n3nc(N4CCN(c5nccn5C)C[C@]4(C)CC)c(-c4c(Cl)c(C)cc5[nH]ncc45)c3C)C2)C1 (single isomer, unassigned) [Example 194b]
912 nM	C=CC(=O)N1CC2(CC(n3nc(N4CCN(CC(C)(C)O)C[C@]4(C)CC)c(-c4c(Cl)c(C)cc5[nH]ncc45)c3C)C2)C1 (single isomer, unassigned) [Example 161a]
715 nM	C=CC(=O)N1CC2(CC(n3nc(N4CCN(C5COCCOC5)C[C@]4(C)CC)c(-c4c(Cl)c(C)cc5[nH]ncc45)c3C)C2)C1 (single isomer, unassigned) [Example 159a]
1000 nM	C=CC(=O)N1CC2(CC(n3nc(N4CC[C@@H](CN5CC6(CCCO6)C5)CC4(C)C)c(-c4c(Cl)c(Cl)cc5[nH]ncc45)c3C)C2)C1 (single isomer, unassigned) [Example 234a]
> 5000 nM	C=CC(=O)N1CC2(CC(n3nc(N4CCN(C[C@@H]5COCCO5)C[C@@]4(CC)C(F)F)c(-c4c(Cl)c(C)cc5[nH]ncc45)c3C)C2)C1 (single isomer, unassigned) [Example 107a]

Reference: patent US20240317721A1, “PYRAZOLYL DERIVATIVES AS INHIBITORS OF THE KRAS MUTANT PROTEIN” (NOVARTIS AG, priority 2021, published 2024)
